Data from patent US6916831B2, “Flavone acetic acid analogs and methods of use thereof” (The University of North Carolina at Chapel Hill, priority 2003, dated 2005).
pIC50: −log10 of the molar value. Values after ≈ are worked out from the molar mass of the structure shown. Like-named read-outs stand apart in the source and are kept apart here.

Key:
[1] = tested on: xenograft ovarian OVCAR-3; conditions: treated mice, xenograft ovarian OVCAR-3 model; cited from earlier work
[2] = tested on: seven human tumor cell lines; assay: Cytotoxicity against seven human tumor cell lines (panel); type: cell-based; conditions: seven human tumor cell lines: epidermoid, bone, ovarian, glioblastoma, melanoma, lung, breast
Protocol: (§1) Cytotoxic assays were performed as described in L. Rubinstein et al., J. Natl. Cancer Inst.

bone carcinoma (HOS) = assay: Cytotoxicity, SRB assay, HOS cells; type: cell-based, human; conditions: 50% reduction in adsorbance at 562 nm relative to untreated cells
Protocol: (§2) Compounds 2-4 and 9-12 were evaluated in a tubulin polymerization assay and for cytotoxicity. Tubulin polymerization assays were performed as described in Y. Xia et al., J. Med. Chem. 1998, 41, 1155. Cytotoxic assays were performed as described in L. Rubinstein et al., J. Natl. Cancer Inst. 1990, 82, 1113-8.

tubulin polymerization = assay: Tubulin polymerization assay (ITP); type: biochemical; conditions: for pIC50: concentration that inhibits the extent of assembly by 50% after 20 min at 30° C.
Protocol: as §2

[3] = tested on: human ovarian cancer (1A9); assay: Cytotoxicity, SRB assay, 1A9 cells; type: cell-based; conditions: 50% reduction in adsorbance at 562 nm relative to untreated cells
Protocol: as §1

[4] = tested on: human breast cancer (MCF-7); assay: Cytotoxicity, SRB assay, MCF-7 cells; type: cell-based; conditions: 50% reduction in adsorbance at 562 nm relative to untreated cells
Protocol: as §2

[5] = tested on: human melanoma cancer (SKMEL-2); assay: Cytotoxicity, SRB assay, SKMEL-2 cells; type: cell-based; conditions: 50% reduction in adsorbance at 562 nm relative to untreated cells
Protocol: as §2

human lung cancer (A549) = assay: Cytotoxicity, SRB assay, A549 cells; type: cell-based; conditions: 50% reduction in adsorbance at 562 nm relative to untreated cells
Protocol: as §2

[6] = tested on: human epidermoid carcinoma of the nasopharynx (KB); assay: Cytotoxicity, SRB assay, KB cells; type: cell-based; conditions: for ED50 KB: SRB assay, 50% reduction in adsorbance at 562 nm relative to untreated cells; for number in parentheses after the ED50 bound, KB: not defined in the patent, stands after the highest concentration (>20 or >10 μg/mL)
Protocol: as §2

[7] = tested on: glioblastoma carcinoma (U-87-MG); assay: Cytotoxicity, SRB assay, U-87-MG cells; type: cell-based, human; conditions: 50% reduction in adsorbance at 562 nm relative to untreated cells
Protocol: as §2

Row | Molecule | increase in life span [1] [%] | cytotoxicity in vitro (in words) [2] | ED50 HOS (bone carcinoma (HOS)) [µg/mL] | fold more active in the tubulin polymerization assay (tubulin polymerization; compound 10 relative to the inactive 9 and 12 (IC50>40 μM)) | pIC50 (tubulin polymerization) | ED50 1A9 [3] [µg/mL] | ED50 MCF-7 [4] [µg/mL] | ED50 SKMEL-2 [5] [µg/mL] | ED50 A549 (human lung cancer (A549)) [µg/mL] | ED50 KB [6] [µg/mL] | number in parentheses after the ED50 bound, KB [6] | activity in the tubulin polymerization assay (in words) (tubulin polymerization) | ED50 U87-MG [7] [µg/mL] | melting point [°C] | activity in the tubulin polymerization assay (in words) (tubulin polymerization; listed as 2-Phenyl-4-quinolone-8-acetic acid)
1 | O=c1cc(-c2ccccc2F)[nH]c2cc3c(cc12)OCO3 [Compound 1] | 130 |  |  |  |  |  |  |  |  |  |  |  |  |  | 
2 | COC(=O)Cc1cccc2c(O)cc(-c3ccccc3F)nc12 [Compound 10] |  | selective activity against ovarian cancers | > 10 | about 4 fold | ~5.00 | 7.50 (≈ 24.1 µM) | > 10 | > 10 | > 10 | > 10 | 29 |  |  |  | 
3 | O=C(O)Cc1ccc2c(=O)cc(-c3ccccc3F)[nH]c2c1 [Compound 4] |  |  |  |  | 4.40 to 4.70 | > 20 | > 20 | > 20 | > 20 | > 20 | 8 | totally inactive |  |  | 
4 | O=C(O)Cc1cccc2[nH]c(-c3ccccc3F)cc(=O)c12 [Compound 2] |  |  |  |  | < 4.40 |  | > 20 | > 20 | > 20 |  |  | totally inactive |  |  | 
5 | O=C(O)Cc1cccc2c1N=C(c1ccccc1F)CC2=O [Compound 12, 2-(2′-Fluorophenyl)-4-quinolone-8-acetic acid] |  | extremely potent | 0.04 (≈ 0.135 µM) |  | < 4.40 | 0.02 (≈ 0.0673 µM) | 0.12 (≈ 0.404 µM) | 0.05 (≈ 0.168 µM) | 0.06 (≈ 0.202 µM) | 0.03 (≈ 0.101 µM) |  | not inhibitors of tubulin polymerization | 0.07 (≈ 0.235 µM) | 243 to 245 | 
6 | COC(=O)Cc1cccc2c(=O)cc(-c3ccccc3)[nH]c12 [Compound 9, 2-Phenyl-4-quinolone-8-methyl acetate] |  |  | > 20 |  | < 4.40 | > 20 | > 20 | > 20 |  | > 20 | 8 |  |  | 76 to 78 | 
7 | 2-Phenyl-4-quinolone-6-acetic acid [Compound 3] |  |  | > 20 |  | 4.70 to 5.00 | > 20 | > 20 | > 20 | > 20 | > 20 | 36 |  | > 20 |  | 
8 | O=C(O)Cc1cccc2c1N=C(c1ccccc1)CC2=O [Compound 11, 2-Phenyl-4-quinolone-8-acetic acid] |  | extremely potent | 0.07 (≈ 0.251 µM) |  | < 4.40 | 0.04 (≈ 0.143 µM) | 0.44 (≈ 1.58 µM) | 0.06 (≈ 0.215 µM) | 0.11 (≈ 0.394 µM) | 0.04 (≈ 0.143 µM) |  | totally inactive | 0.12 (≈ 0.43 µM) |  | not inhibitors of tubulin polymerization
